Assay: Stability of crystal form C on drying (XRPD)
Assay type: physicochemical
Excerpt: The sample was subjected to a TGA test. From the above results, it is speculated that the crystal form C is an unstable channel hydrate that is prone to crystal transformation during drying and placement, making the preparation of a pure phase difficult.

CCc1nc(-c2ccc(-c3ccc(CCC(N)(CO)CO)cc3)cc2)co1.Cl [crystal form C, 2-amino-2-{2-(4'-(2-ethyloxazol-4-yl)-[1,1'-biphenyl]-4-yl)ethyl}-1,3-propylene glycol hydrochloride]
crystal form after drying (XRPD) (purged with nitrogen at room temperature for 3 h): partially crystal transformed into the crystal form A | crystal form after drying (XRPD) (vacuum at 50 °C under reduced pressure, dried overnight): partially crystal transformed into a crystal form A

From patent EP4640674A1, “CRYSTAL FORMS OF ETHOXIMOD, PREPARATION METHOD THEREFOR AND USE THEREOF” (Jiankuan (Suzhou) Biotechnology Co., Ltd, priority 2022, dated 2024)
